Laboratory results: patent publication US10717981B2, “Therapeutic compositions and methods of making and using the same” (Advanced ReGen Medical Technologies, LLC, priority 2018, dated 2020)

Experiments:
huNSG mice = test system: huNSG mice
Procedure: T cell activation was determined using the T Cell Activation/Expansion Kit (Miltenyi). Briefly, anti-biotin MACSiBead Particles were loaded with CD2, CD3, and CD28 antibodies. Cells from 7-day isochronic or heterochronic cultures, or MNCs isolated from huNSG mouse blood by Ficoll-Hypaque density gradient, were incubated with loaded anti-biotin MACSiBead Particles at a 1:2 bead to cell ratio for 72 h to activate T cells. Addition of unloaded MACSiBead Particles served as negative control. After 72 h, cells were fluorescently labeled using CD45-FITC, CD4-PE, CD25-PerCP-Cy5.5 and CD8-APC to determine T cell activation status by flow cytometry.
5-week old, female NOD/scid IL2Rγnull (NSG) mice were purchased from Jackson Labs and housed in an AALAC-accredited facility at Rutgers, N.J. Medical School (Newark, N.J.). The protocol was approved by the Institutional Animal Care and Use Committee, Rutgers School of Biomedical Health Sciences (Newark, N.J.). Mice were acclimated in the Rutgers barrier animal facility for 1 week prior to experimental use. 6-week old mice were subjected to 150 cGy whole body gamma irradiation using a Mark-I cesium irradiator unit. 5 hours post-irradiation, mice were injected i.v. with 5×10^5 human CD34+ cells isolated from aged or young study donor Leukopaks. Engraftment proceeded over 15-19 weeks, with peripheral blood chimerism monitored at 9 and 13 weeks post-transplant. % Chimerism was detected by co-labeling blood with anti-human CD45-APC (HI30) and anti-mouse CD45-FITC (30-F11) for monitoring by flow cytometry. Humanized NSG (huNSG) enrolled in the treatment arm of the transwell-based animal study were given a 2nd i.v. injection of 5×10^5 autologous aged cells from 7-day isochronic (non-restored) or heterochronic (restored) cultures that were CD3-depleted (Miltenyi) prior to transplant, or saline control. The miRNA-based animal study was performed as above, except that the treatment arm utilized autologous aged cells transfected with 60 nmol total of either miR-619 alone, miR-combo (miR-619, -1303, 4497) or control RNA. Transfections utilized the HiPerFect reagent (Qiagen), and cells were transfected for a total of 7 days prior to CD3 depletion and i.v. injection as above. Mice were sacrificed at 14-15 weeks post-transplant, and blood, BM and speen harvested for biochemical, phenotypic and functional analyses. Major organs were also harvested for histological assessment. Tissue embedding, processing and staining were performed by the Digital Imaging and Histology Core of Rutgers-New Jersey Medical School Cancer Center (Newark, N.J.). Histologic findings were confirmed on H&E slides by a board-certified veterinary pathologist.
Detection of senescence associated secretory factors (SASFs) in plasma of huNSG mice was performed using Custom C-Series Human Antibody Arrays (Ray Biotech). Arrays were labeled with antibodies to 68 different factors linked to cellular senescence. Briefly, blood from huNSG mice was pelleted for 10 min at 300 g and plasma supernatant collected in siliconized microfuge tubes for SASF determination. […] Background levels were calculated by incubating the arrays with plasma from non-humanized NSG mice and then subtracting the obtained values from each huNSG sample.
For the T Cell Cytokine Array (Ray Biotech), conditioned media was collected from cells isolated from huNSG peripheral blood that were stimulated as per the T cell activation assay (see above) after 72 h and stored in protein lo-bind tubes. […] For both the custom SASF and T cell cytokine arrays, densitometry was performed using the UN-SCAN-IT densitometry software (Silk Scientific). Hierarchical clustering and heat map generation were perfomed with Heatmapper software.
BM from huNSG were flushed with a 26-gauge needle and collected for subsequent purification of engrafted human cells with the Mouse Cell Depletion Kit (Miltenyi).

K562 = test: Cell-mediated cytotoxicity assay, aged effector cells; type: cell-based; settings: miRNA formulations in aged cells, vs control RNA
Procedure: Cell cytotoxicity was determined with the CFSE/7-AAD Cell Cytotoxicity Kit (Cayman Chemical) according to manufacturer's specified instructions. Briefly, the human chronic myelogenous leukemia cell line, K562, (ATCC # CCL-243) was used as target cells. 107 K562 cells were labeled for 15 min with CFSE dye, washed twice and diluted 100-fold for 30 min incubation at 37° C. Cells from 7-day isochronic or heterochronic cultures were used as effectors. Effector and target cells were added to 6-well plates at the following effector-to-target (E:T) ratios: 0:1, 6.25:1, 12.5:1 and 25:1, and cell mixtures incubated for 4 h at 37° C. Cells were harvested and counter-stained with 7-AAD. 50,000 events were acquired on the FACSCalibur flow cytometer, and data analyzed using BD CellQuest Pro™ software. Target cells incubated alone with 7-AAD served as control to calculate spontaneous lysis, while effector cells alone with 7-AAD served as control to detect dead effector cells. Percent lysis was calculated according the following formula: [(cells positive for both CFSE and 7-AAD/total CFSE-labeled cells)*100−spontaneous % lysis]. […]

aged cells = test: Clonogenic assay (CFU-GM) of aged cells after miRNA mimic, siRNA or exosome treatment; type: cell-based, human; settings: overexpression of candidate miRNAs in aged isochronic cultures, vs negative control RNA
Description: Aged TNCs (10×10^6 cells per sample) were nucleofected with microRNA mimics (Qiagen), miRNA inhibitors (Qiagen), negative control siRNA (Qiagen), negative control miRNA inhibitor (Qiagen) or downstream target candidate siRNAs (Origene) using the Amaxa P3 Primary Cell 4D-Nucleofector X Kit (Lonza) on a 4D Nucleofector device (Lonza), according to manufacturer's specific protocol. Briefly, for nucleofection of CD34+ cells used in clonogenic assays, cells were nucleofected with 60 nmol total miRNA mimics, miRNA inhibitors or siRNA using the “human CD34+ cell” program. For nucleofection of T cells used in T cell activation and cell-mediated cytotoxicity assays, cells were nucleofected with 240 nmol total miRNA mimics, miRNA inhibitors or siRNA using the “human unstimulated T cell, high functionality” program.

Substance: miR-619: miRNA (miR-619-5p), GCUGGGAUUACAGGCAUGAGCC (chemistry not given here; listed as Homo sapiens)
- SASFs decreased (68 factors linked to the SASP) (huNSG mice; blood plasma, 1.5-fold cutoff, vs control): 51.4%
- total SASF expression (huNSG mice; blood plasma, vs control): significant decreases
- mean overall survival (huNSG mice; mice receiving aged cells treated with miRNA, 15 weeks after 2nd transplant): 89%
- clonogenicity (huNSG mice; normalized to control, compared to heterochronic treatment): more robust
- huCD3+ cells in blood (huNSG mice; vs RNA control): increased
- huCD4+ cells in blood (huNSG mice; vs RNA control): significantly increased
- BM clonogenicity (huNSG mice; vs control): significantly increased
- huCD4+/CD8+ ratio in blood (huNSG mice; vs control): increased
- huCD8+ cells in blood (huNSG mice; vs control): decreased
- human chimerism in BM or blood (huNSG mice; vs control RNA): No significant difference
- target lysis (cell-mediated cytotoxicity) (K562): significant increases
- aged colony formation (aged cells): significant effect
